Reference: patent US12655169B2, “Arabinose and preparation and use thereof” (THOMSON BIOTECH (XIAMEN) PTE. LTD., priority 2022, dated 2026)

Tests used:
[1] = Saturation curve and crystallization curve of L-arabinose; type: physicochemical; conditions: for Crystallization mass concentration: cooling 1 °C/h, stirring 100 rpm; for Saturation mass concentration: water
Experimental: A round-bottom flask was plated in a constant-temperature box with temperature control. To a three-necked round-bottom flask (one flask mouth was plugged with a plastic stopper as a sampling mouth, one flask mouth was used for placing a stirrer, and one flask mouth was used for temperature sensing) were added a certain amount of ionized water and excessive L-arabinose crystal (prepared according to the method of Example 10). The mixture was stirred at 40° C., 49° C., 53° C., 58° C. and 65° C. for 3 h per temperature point, and then let stand for 4 h to allow the undissolved L-arabinose crystal to completely settle. Then the supernatant was collected and filtered through a microporous filter membrane (for filtration using a small injection needle in the constant-temperature box to eliminate the effect of temperature change). The resulting clear liquid was used for concentration determination. A saturation curve was plotted for arabinose: y=0.5927x+23.089 (correlation coefficient R 2=0.99) (see FIG. 4). Clear sugar liquids in which corresponding mass concentrations of L-arabinose were dissolved was prepared, then slowly cooled (1° C./h), and cooled at a constant rate (with stirring at 100 rpm). The crystallization temperature of the sugar liquids with different mass concentrations was observed and recorded. A crystallization curve was plotted for arabinose: y=0.4163x+40.413 (correlation coefficient R 2=1) (see FIG. 4 and Table 15-1).

[2] = In vitro osmotic pressure test (Vapro Pressure Osmometer); type: physicochemical; conditions: versus sorbitol solution at the same mass concentration 30%
Excerpt: Instrument: Vapro Pressure Osmometer
Materials: L-Arabinose (Prepared According to the Method of Example 1); Sorbitol (Commercially Available Chinese Medicinal Agent)
Procedure: The 4 numbered solutions were each prepared according to the material proportions shown in Table 2 and stirred until they were all clear and transparent.

Supersaturation coefficient ([1]; 40 °C): 1.233
Crystallization mass concentration ([1]; 40 °C): 57.07%
Supersaturation coefficient ([1]; 49 °C): 1.154
Crystallization mass concentration ([1]; 49 °C): 60.81%
Supersaturation coefficient ([1]; 53 °C): 1.134
Crystallization mass concentration ([1]; 53 °C): 62.48%
Supersaturation coefficient ([1]; 58 °C): 1.135
Crystallization mass concentration ([1]; 58 °C): 64.56%
Supersaturation coefficient ([1]; 65 °C): 1.097
Crystallization mass concentration ([1]; 65 °C): 67.47%
Saturation mass concentration ([1]; 40 °C): 46.3%
Saturation mass concentration ([1]; 49 °C): 52.7%
Saturation mass concentration ([1]; 53 °C): 55.1%
Saturation mass concentration ([1]; 58 °C): 56.9%
Saturation mass concentration ([1]; 65 °C): 61.5%
Percent increase in osmotic pressure [2]: 22.8%
Compound: O[C@@H]1[C@@H](O)[C@@H](O)OC[C@@H]1O [L-arabinose, β-L-(+)-arabinose]
